Measurements: US20260306452A1, “5-METHOXY-N,N-DIMETHYLTRYPTAMINE (5-MEO-DMT) PHARMACEUTICAL COMPOSITIONS” (Beckley Psytech Limited, priority 2023, published 2026)
Where a name gives a salt, the structure may show the parent alone. Read-outs that look alike come from different tables or passages of the source.

Experiments:
[1] = Phase 1 single ascending dose study, intranasal 5-MeO-DMT HCl, plasma pharmacokinetics; type: in vivo, human (healthy subjects)
Experimental: In an embodiment, there is provided a dose-proportional salt of 5-MeO-DMT for use in the methods disclosed herein. In an embodiment, the dose-proportional salt of 5-MeO-DMT is the benzoate salt. A double-blind, randomised, Phase 1, single ascending dose study to evaluate the safety, tolerability and pharmacokinetic profile of intranasal 5-MeO-DMT HCl (5-MeO-DMT HCl, HPMC, water for injection (WFI) and a sodium hydroxide solution to adjust pH) in healthy subjects was performed.

[2] = type: in vivo, human
Description: For example, some subjects report nasal discomfort when treated with a single intranasal dose of a salt of 5-MeO-DMT. Additionally, some subjects experienced nausea and vomiting when given a higher single dose of a salt of 5-MeO-DMT. So, the frequency/likelihood of physical discomfort when using the 5-MeO-DMT salt should be minimised or substantially eliminated.

[3] = Subjective Dose Intensity (SDI) / duration of the trip; type: in vivo, human
[4] = Hygroscopicity / water uptake; type: physicochemical; conditions: for total water uptake: between 0% RH and 90% RH at 25° C.
Experimental: (§1) In an embodiment, the 5-MeO-DMT is administered as a crystalline form of the benzoate salt. Crystalline forms of the benzoate salt are disclosed in WO2021250434 and are incorporated herein. Crystalline forms of the hydrochloride salt are also disclosed in WO2021250434 and are incorporated herein. In an embodiment, crystalline 5-MeO-DMT hydrochloride is characterised by peaks in an X-ray powder diffraction (XRPD) diffractogram at 2θ values of 9.2°±0.1°, 12.2°±0.1°, 14.1°±0.1°, 15.0°±0.1°, 18.5°±0.1°, and 19.5°±0.1°, as measured using an X-ray wavelength of 1.5406 Å. In an embodiment, the 5-MeO-DMT salt is a non-hygroscopic salt. […] The non-hygroscopic, highly soluble HBr salt of 5-MeO-DMT therefore affords the advantage of removing the need for costly and burdensome processing measures, for example the need for low humidity manufacturing environment.

[5] = type: in vivo, human (healthy subjects)
Experimental: A double-blind, randomised, Phase 1, single ascending dose study to evaluate the safety, tolerability and pharmacokinetic profile of intranasal 5-MeO-DMT benzoate in healthy subjects was performed.

[6] = 30-item Mystical Experience Questionnaire (MEQ30), mystical / peak experience; type: in vivo, human
Description: The MEQ30 is a self-report measure that has been used to measure mystical-type experiences in studies of psychedelics. It is known that the occurrence of a mystical experience, following treatment with a psychedelic, is a primary predictor of therapeutic outcomes in patients. Typically, a complete mystical experience is defined as scoring 60% or more on all four factors of the MEQ30. The four factors of the MEQ30 are: mystical, positive mood, transcendence of time and space, and ineffability. Subjects being treated with the 5-MeO-DMT salt are coached prior to dosing, but nevertheless for some subjects, a rapid onset of an intense Mystical Experience can be unsettling. In such a scenario, the medical practitioners and associated support system is also put under an additional monitoring and care load. So, the frequency/likelihood of rapid onset of an intense Mystical Experience using the 5-MeO-DMT salt should be minimised or substantially eliminated.
Each quadrant of a pie is fully coloured if a value equal to or greater than 3 is reached for that dimension (wherein the four quadrants represent the four factors of the MEQ30: mystical, positive mood, transcendence of time and space, and ineffability). Each pie represents a single individual who received the respective dose. It can be seen that the 4/6 individuals who received 12 mg total dose of 5-MeO-DMT benzoate in a biphasic fashion achieved mystical experiences, which represents a 66% success rate.

Irritation tolerability = conditions: in particular compared to the chloride salt
Solubility of salts = type: physicochemical; conditions: compared to moderately hygroscopic salts, e.g. benzoate or oxalate
Experimental: as §1

[7] = 6 mg intranasal, single nostril
[8] = 8 mg intranasal, single nostril
[9] = 10 mg intranasal, single nostril
[10] = 12 mg (biphasic): 4 mg one nostril then 8 mg other nostril
[11] = 12 mg intranasal, single nostril (monophasic)
[12] = 12 mg biphasic vs 12 mg monophasic
[13] = 12 mg total dose, biphasic (4 mg + 8 mg)

COc1ccc2[nH]cc(CCN(C)C)c2c1.Cl [5-MeO-DMT HCl]
mean concentration profiles between doses ([1]; 5 mg, 8 mg, 10 mg, 11 mg and 14 mg intranasal): substantially similar | dose-proportional pharmacokinetics ([1]; intranasal, healthy subjects): does not display dose-proportional pharmacokinetics

COc1ccc2[nH]cc(CCN(C)C)c2c1.O=C(O)c1ccccc1 [5-MeO-DMT benzoate, 5-methoxy-N,N-dimethyltryptamine (5-MeO-DMT) Benzoate]
Vomiting (% subj. incl. PBO) ([2]; 4 mg intranasal): 33% | Vomiting (% subj. incl. PBO) [2, 7]: 0% | Vomiting (% subj. incl. PBO) [2, 8]: 0% | Vomiting (% subj. incl. PBO) [2, 9]: 0% | Vomiting (% subj. incl. PBO) [2, 10]: 17% | Vomiting (% subj. incl. PBO) [2, 11]: 29% | overall tolerability profile ([2]; intranasal): good (and better than the corresponding and better known chloride salt) | Duration of the trip (estimate based on intensity) ([3]; 4 mg intranasal): 18 min | Duration of the trip (estimate based on intensity) [3, 7]: 31 min | Duration of the trip (estimate based on intensity) [3, 8]: 40 min | Duration of the trip (estimate based on intensity) [3, 9]: 46 min | Duration of the trip (estimate based on intensity) [3, 10]: 70 min | length of psychedelic experience, comparison [3, 12]: longer psychedelic experience | duration of ‘trip’, comparison ([3]; 12 mg biphasic vs other doses): longer duration of ‘trip’ | Duration of the trip (estimate based on intensity) [3, 11]: 50 min | subjective intensity/mystical experience despite lower peak plasma concentration ([3]; biphasic administration): did not result in a lower subjective intensity/mystical experience | stability profile (Stability profile): good stability profile | hygroscopicity [4]: moderately hygroscopic | AUC inf ([5]; 4 mg intranasal): 5.0 ng·h/mL | Cmax ([5]; 4 mg intranasal): 8.7 ng/mL | Tmax ([5]; 4 mg intranasal): 7.0 min | T½ ([5]; 4 mg intranasal): 22.4 min | AUC inf [5, 7]: 9.8 ng·h/mL | Cmax [5, 7]: 14.9 ng/mL | Tmax [5, 7]: 9.0 min | T½ [5, 7]: 22.2 min | AUC inf [5, 8]: 14 ng·h/mL | Cmax [5, 8]: 22.1 ng/mL | Tmax [5, 8]: 10.6 min | T½ [5, 8]: 17.7 min | AUC inf [5, 9]: 15.4 ng·h/mL | Cmax [5, 9]: 32.3 ng/mL | Tmax [5, 9]: 8.4 min | T½ [5, 9]: 22.7 min | AUC inf [5, 10]: 10.7 ng·h/mL | Cmax [5, 10]: 16.7 ng/mL | Tmax [5, 10]: 27 min | T½ [5, 10]: 16.1 min | peak plasma concentration, comparison [5, 12]: lower peak plasma concentration | rise to peak mean plasma concentration [5, 12]: slower rise to peak mean plasma concentration | mean Cmax ([5]; 12 mg dosage, intranasal): 29 ng/mL | AUC inf [5, 11]: 23 ng·h/mL | Cmax [5, 11]: 28.9 ng/mL | Tmax [5, 11]: 15.3 min | T½ [5, 11]: 26.6 min | observed peak plasma concentration vs prediction ([5]; biphasic administration): significantly lower than that which was expected | dose linearity of pharmacokinetics ([5]; intranasal, healthy subjects): approximately dose linear | efficacy ([6]; 4 mg first dose followed by 8 mg second dose): good efficacy | Peak exp. (%) ([6]; 4 mg intranasal): 0% | Peak exp. (%) [6, 7]: 25% | Peak exp. (%) [6, 8]: 20% | Peak exp. (%) [6, 9]: 60% | Peak exp. (%) [6, 10]: 66% | % peak experience, comparison ([6]; 12 mg biphasic vs other doses): the highest % peak experience | Peak exp. (%) [6, 11]: 60% | individuals who achieved mystical experiences [6, 13]: 4/6 | success rate (mystical experiences, MEQ30) [6, 13]: 66% | MEQ30 score ([6]; single intranasal dose): > 3 | success rate (mystical experiences, MEQ30) ([6]; singular 10 mg dose): 60% | success rate (mystical experiences, MEQ30) ([6]; singular 12 mg dose): 60% | irritation tolerability (Irritation tolerability): good irritation tolerability

Br.COc1ccc2[nH]cc(CCN(C)C)c2c1 [5-MeO-DMT hydrobromide]
solubility (Solubility of salts): high solubility | hygroscopicity [4]: substantially non-hygroscopic

COc1ccc2[nH]cc(CCN(C)C)c2c1 [5-MeO-DMT ketoglutarate]
rapid increase of water uptake ([4]; 90% RH): 28.140 w/w | gradual water uptake, lower humidity ([4]; 403RH as printed): 0.13 % w/w | gradual water uptake, upper humidity ([4]; 801 RH as printed): 2.55 w/w

COc1ccc2[nH]cc(CCN(C)C)c2c1.O=C(O)C(=O)O [5-MeO-DMT oxalate]
hygroscopicity [4]: moderately hygroscopic

COc1ccc2[nH]cc(CCN(C)C)c2c1 [5-MeO-DMT phosphate]
hygroscopicity ([4]; listed as phosphate salt): slightly hygroscopic

COc1ccc2[nH]cc(CCN(C)C)c2c1 [5-MeO-DMT tartrate]
total water uptake [4]: approximately 3.3 % w/w | hygroscopicity ([4]; listed as tartrate salt of 5-MeO-DMT): moderately hygroscopic

COc1ccc2[nH]cc(CCN(C)C)c2c1 [5-MeO-DMT tosylate]
total water uptake [4]: approximately 1.9 % w/w | hygroscopicity ([4]; listed as tosylate salt): slightly hygroscopic

COc1ccc2[nH]cc(CCN(C)C)c2c1 [5-MeO-DMT, 5-methoxy-N,N-dimethyltryptamine]
shape of mean plasma concentration curve ([5]; biphasic administration): m-like biphasic curve

CN(C)CCc1c[nH]c2ccc(O)cc12 [Bufotenin]
detection of the O-demethylated metabolite in plasma ([5]; 6 mg dose level of 5-MeO-DMT benzoate, after the 16 minutes time point): only detected at very low levels
